Activity calls are given as the source filed them. No rule for the calls is given here.
target: Prostaglandin E2 receptor EP2 subtype (Homo sapiens) (UniProt P43116); test: compounds shifting PGE2 potency at EP2 – cell-based, human EP2, PGE2 EC50 shift, dose response (AID 1421); settings: EP2-expressing cells, PGE2 EC50 shift by compound
Sequence (P43116 whole entry, looked up): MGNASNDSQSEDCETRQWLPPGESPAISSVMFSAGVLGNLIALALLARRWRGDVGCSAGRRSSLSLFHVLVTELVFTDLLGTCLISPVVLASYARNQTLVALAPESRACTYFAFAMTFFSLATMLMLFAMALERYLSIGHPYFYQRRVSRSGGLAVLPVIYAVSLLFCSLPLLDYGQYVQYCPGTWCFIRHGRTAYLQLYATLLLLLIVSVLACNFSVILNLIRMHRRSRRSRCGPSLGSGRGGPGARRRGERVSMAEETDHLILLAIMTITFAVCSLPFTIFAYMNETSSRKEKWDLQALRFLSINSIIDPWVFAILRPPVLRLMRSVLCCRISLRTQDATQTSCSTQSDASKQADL

Compound	outcome
CCOC(=O)c1cc(C)sc1NC(=O)c1ccc(Cl)s1	active
FC(F)(F)c1cc(-c2ccccc2)nc2nc(N3CCOCC3)sc12	active
COC(=O)c1sc2nc(N3CCCCC3)c3c(c2c1N)CCCC3	active
COCCn1c(SC(C(=O)Nc2cc(C)ccc2OC)c2ccccc2)nnc1-c1ccc(Cl)cc1 (centres undefined)	active
Cc1nc2c(c(C)nn2-c2ccccc2)c(C)c1Cl	active
Cc1ccccc1C(=N)c1ccccc1Cc1cccc2ccccc12	active
COc1ccccc1NC(=O)c1c(C)oc2c1CCCC2	active
Cc1ccc(-c2cc(C(F)(F)F)nn2-c2ccc(S(N)(=O)=O)cc2)cc1	active
Cc1cc(C)n(-c2nc3ccccc3nc2Nc2ccc3[nH]c(=O)[nH]c3c2)n1	active
COC1(C)CC2C(CC1OC(=O)c1cc([N+](=O)[O-])cc([N+](=O)[O-])c1)C2(C)C (centres undefined)	active
Cc1ccc(O)c(C2=Nc3ccccc3N=C(c3cccs3)C2)c1	active

same assay, conditions: EP2-expressing cells, PGE2 EC50 shift by compound; measured here: PGE2 EC50 at 6.7 uM compound

Compound	PGE2 EC50 with compound [nM]
CSc1nc(Sc2ccccc2)c2ccccc2n1	1.6
CCOC(=O)c1cc(C)sc1NC(=O)c1ccc(Cl)s1	0.73
CC1Cc2ccccc2N1C(=O)CSc1nnc(Cc2ccccc2)n1CCc1ccccc1 (centres undefined)	1.14
CCOC(=O)c1c(-c2cccs2)csc1NC(=O)CN1CCOCC1	0.99
Cc1ccc(N=N/C(=C\O)C(=O)c2ccc(Cl)cc2)cc1	0.87
CCOC(=O)c1c(NC(=O)CN2C(=O)NC3(CCCCCC3)C2=O)sc(C)c1-c1ccc(C)cc1	0.76
Clc1ccccc1Cn1c(/C=C/c2ccco2)nc2ccccc21	0.99
CC(=O)c1ccc(S(=O)(=O)NCCCC(=O)NCCc2ccccn2)cc1	1.15
OCCCNc1nc(-c2ccc(Br)cc2)nnc1-c1ccc(Cl)cc1	1.42
Cc1cccc(CSc2ncnc3ccccc23)c1	0.87
O=[N+]([O-])c1ccc(Cl)c2c1C1C=CCC1C(c1ccccn1)N2 (centres undefined)	0.69
CCOC(=O)c1c(NC(=O)c2ccc(N3C(=O)[C@@H]4[C@H](C3=O)[C@H]3C=C[C@@H]4C3)cc2)sc2c1CC(C)CC2 (some centres undefined)	1.22
CCN(CC)CCN1C(=O)c2cccc3cc(N)cc(c23)C1=O	2.64
FC(F)(F)c1cc(-c2ccccc2)nc2nc(N3CCOCC3)sc12	1.68
COc1cc(/C=C2\SC(=S)N(Nc3ncc(C(F)(F)F)cc3Cl)C2=O)ccc1O	1.36
O=c1cc(N2CCCCC2)c(-c2ccccc2)nn1Cc1ccc(F)cc1	2.5
c1ccc(-c2noc(CN3CCN(C(c4ccccc4)c4ccccc4)CC3)n2)cc1	0.73
S=C1NCCc2ccc(Cl)cc2C1c1ccccc1 (centres undefined)	1.38
CC1(C)OC(c2ccccc2)=C/C(=C/C=Nc2ccccc2)O1	0.99
Cc1ccc(-c2cc3nn(-c4ccccc4)c(N)c3c(=O)o2)cc1	1.87
CCOc1ccccc1C(=O)Nc1ccsc1C(=O)OC	1.32
CC(C)n1c2ccccc2c2nc3ccccc3nc21	2.59
CNC(=O)c1cc2c(=O)n3cc(C)ccc3nc2n(C(C)C)c1=N	1.13
CCOC(=O)c1c(NC(=O)CN2CCCCC2)sc2c1CCN(C(=O)OCC)C2	0.9
O=C(Nc1ccccc1Oc1ccccc1)c1cnccn1	0.78

Compound	PGE2 EC50 with compound [nM]
O=C(Nc1ccccc1N1CCCCC1)c1ccc(Cl)c([N+](=O)[O-])c1	1.23
FC(F)(F)c1cccc(/C=N/NC(=S)NC2CCCCC2)c1	0.42
COC(=O)c1sc2nc(N3CCCCC3)c3c(c2c1N)CCCC3	0.85
CCSc1ncnc2sc3c(c12)CCC3	0.94
COCCn1c(SC(C(=O)Nc2cc(C)ccc2OC)c2ccccc2)nnc1-c1ccc(Cl)cc1 (centres undefined)	1.44
C=CCn1c(SCc2c(C)noc2C)nc2sc(C)c(C)c2c1=O	0.62
Cc1nc2c(c(C)nn2-c2ccccc2)c(C)c1Cl	0.69
COc1cc(OC)c(OC)cc1CNCCc1ccc(OC)c(OC)c1	1.3
Cc1cccc(Cn2c(=O)n(Cc3ccco3)c(=O)c3ccccc32)c1	1.13
C=CCOc1ccccc1CNc1cccc(F)c1	0.84
CCOC(=O)c1c(NC(=O)c2c(Br)cnn2CC)sc(C)c1C	0.9
COc1ccc(-n2c(=S)[nH]c3c(oc4ccccc43)c2=O)cc1	2.8
CCn1c(COc2ccc(Cl)cc2)nnc1SCC(=O)Nc1ccc2c(c1)OCO2	1.09
COC(=O)c1c(NC(=O)Cc2cccs2)sc(C)c1C	0.88
S=c1[nH]cc(-c2ccccc2)n1-c1ccccc1	1.48
Cc1cc(C)n(-c2cc(-c3ccccc3)nc(C)n2)n1	2.6
CC1CCN(C(C)C(=O)Nc2ccccc2-c2ccccc2)CC1 (centres undefined)	1.27
OCCCNc1nc(-c2ccc(Cl)cc2)nnc1-c1ccc(Br)cc1	1.11
C=CCn1c(=O)c2c3c(sc2n2c(Nc4ccc(OC)cc4)nnc12)CCCC3	0.77
Cc1ccccc1C(=N)c1ccccc1Cc1cccc2ccccc12	0.33
CCN(CCO)c1ncnc2c1sc1nc(C(C)C)c3c(c12)CC(C)(C)OC3	0.69
Cc1cc(O)c(C=O)c2c1C(=O)Oc1c(C)c(O)c3c(c1O2)C(O)OC3=O (centres undefined)	0.76
Cc1ccccc1-c1n[nH]c(=S)n1/N=C/c1ccc(-c2ccccc2Br)o1	2.42
CCc1ccc2[nH]c(=O)c(CN(Cc3nnnn3C3CCCC3)C3CCCCC3)cc2c1	0.8
COc1ccccc1NC(=O)c1c(C)oc2c1CCCC2	1.19

Compound	PGE2 EC50 with compound [nM]
Cc1ccc(-c2cc(C(F)(F)F)nn2-c2ccc(S(N)(=O)=O)cc2)cc1	1.28
C/C=C/Cn1c(SCc2ccc(C)cc2)nc2c1c(=O)[nH]c(=O)n2C	0.78
CC(=O)N1Cc2ccccc2C(C)CC12CCCCC2 (centres undefined)	0.93
Cc1nc(N2N=C(c3ccc(Cl)cc3)CC2c2ccco2)sc1C(=O)N(C)C (centres undefined)	2.73
Cc1cc(C)n(-c2nc3ccccc3nc2Nc2ccc3[nH]c(=O)[nH]c3c2)n1	0.83
COC1(C)CC2C(CC1OC(=O)c1cc([N+](=O)[O-])cc([N+](=O)[O-])c1)C2(C)C (centres undefined)	2.79
CCOC(=O)C1CCN(c2c(C(=O)c3ccccc3)cnc3ccc(CC)cc23)CC1	0.91
Cc1cc(C)c(N=C2CCCN2Cc2ccccc2)c(C#N)c1	1.39
CNc1oc(-c2ccc(Cl)cc2)nc1P(=O)(c1ccccc1)c1ccccc1	0.76
Cc1cccc(NC2=NC(=S)N(c3ccc(C(=O)O)cc3)C23CCCCC3)c1	0.8
O=C(c1ccccc1)C1CN(Cc2ccccc2)CCC1(O)c1ccccc1 (centres undefined)	2.61
CCCSc1nc(N2CCCC2)c2c(c1C#N)CC(C)(C)OC2	1.15
c1cncc(-c2nc(N3CCCCCC3)c3ccccc3n2)c1	0.91
Cc1ccc(O)c(C2=Nc3ccccc3N=C(c3cccs3)C2)c1	1.17
Cc1cccc(N=N/C(=C\O)C(=O)c2ccc(Br)cc2)c1	0.31
CN(Cc1c(C(=O)N2CCc3ccccc3C2)nc2ccc(Cl)cn12)C(C1CC1)C1CC1	0.9
CCC(=O)Oc1ccc2c(C)cc(=O)oc2c1C(=O)c1ccccc1	1
CCOC(=O)CCCCCCCCCCCCC1C=CCC1 (centres undefined)	0.96
Cc1ccc(C(Sc2ccccc2)C(Cn2cncn2)C(=O)c2ccccc2)cc1 (centres undefined)	0.97
CCOC(=O)c1c(NC(=O)c2cccs2)sc2c1CCN(C(=O)OCC)C2	1.53
CC1CCCCN1C(=O)/C(=C\c1ccccc1)c1ccccc1 (centres undefined)	2.61
CCCCNc1nc(N(C)c2ccccc2)nc(-n2ccnc2)n1	1.11
CC1CN(c2nc3ccccc3cc2-c2ccccc2)CC(C)O1 (centres undefined)	0.53

From PubChem BioAssay AID1421 (Emory University Molecular Libraries Screening Center, 2008)
